{"source": "patent US20220096664A1", "about": "“STABILIZED FORMULATIONS CONTAINING IODINATED CONTRAST AGENTS AND CYCLODEXTRINS” (Verrow Pharmaceuticals, Inc., priority 2012, published 2022)", "key": {"[1]": {"format": "physicochemical", "description": "(§1) The lamps were switched on and the solutions irradiated for 18 to 24 hours for the ultraviolet (UV) lamps or 72 to 90 hours for the visible (VIS) light lamps. At the end of the selected irradiation time, the cuvettes were removed from the photolysis chamber and mixed by inversion 2-times. The caps were then removed and 40 microliter aliquots taken and diluted with 1 mL of an aqueous solution containing ˜0.9 mg/mL sodium thiosulfate. The thiosulfate solution converted any I2, IO3^−, and I3^− present in the solution tor such that total iodine species could be determined in one assay.\n(§2) The diluted solutions were assayed by high pressure liquid chromatography (HPLC) using a 4.6×250 mm, C-18, 5 micron particle size, reversed phase column with detection at 280 nm for the contrast agent and 230 nm for the thiosulfate and the iodide ion (r). A mobile phase of 30:70 methanol:aqueous buffer (50 mM KH2PO4+7 mL/L 40% tetrabutyl ammonium hydroxide) at 0.75 mL/min was used for elution. Injection volume was 20 microliters. External standards were prepared containing each contrast agent, potassium iodide, and sodium thiosulfate solution and analyzed along with the irradiated samples. The results were reported as weight percentage iodide formed (mg iodide/mg contrast agent times 100).\nAqueous solutions were prepared containing 50 mM iodinated contrast agent, 10 mM tromethamine HCl buffer (TRIS), with and without sulfobutylether beta-cyclodextrin with an average degree of substitution-7 (SBE7-β-CD), or 2-hydroxypropyl beta-cyclodextrin with an average degree of substitution of ˜6.3 (HP6.3-β-CD) or ˜4.3 (HP4.3-β-CD). The iohexol solution was prepared by dissolving solid iohexol powder while the other solutions were prepared by diluting commercial formulated products and adding sufficient TRIS buffer to reach 10 mM. The pH of the solutions was adjusted to 7.4 with 0.1N hydrochloric acid.\nAliquots of the solutions were irradiated with visible light for 72 hours (0.52 million lux hours). Other aliquots were autoclaved for 20 minutes at 121° C., cooled to room temperature and then irradiated with ultraviolet light for 18 hours (119 watt hours/m2). The solutions were then processed, analyzed and reported as in Example 2, except that the chromatographic peaks of the contrast agents were evaluated at 300 nm for both samples and standards. […]\nAqueous formulations were prepared containing iodinated contrast agents at concentrations used commercially in medical procedures. Sulfobutylether-cyclodextrin, sodium salt, average degree of substitution ˜7 (SBE7CD) was added at varying agent:CD mole ratios. The formulations were placed in glass vials, sealed with rubber stoppers and aluminum crimps, and autoclaved at 121° C. for 20 minutes. Aliquots of the autoclaved solutions were exposed to UV light for 24 hours (159 watt hours/m^2 or VIS light for 72 hours (0.52 million lux hours) as in Example 2. The solutions were then processed, analyzed and reported as in Example 2, with the following two exceptions; 1) the chromatographic peaks of the contrast agents were evaluated at 300 nm for both samples and standards, and 2) only 20 microliter sample aliquots were taken and diluted for HPLC analysis due to the higher concentrations used in this study. Results of the study are presented in the table below along with the solution compositions."}, "[2]": {"assay": "Photostability: iodide formed after UV light irradiation", "format": "physicochemical", "conditions": "18 h, 50 mM", "description": "Aqueous solutions comprising iodinated contrast agents were prepared and evaluated in a photolysis chamber as described in the ICH guidance document, Q1B Photostability Testing of New Drug Substances and Products, available from the US Food and Drug Administration, incorporated herein by reference. The solutions were placed in 1 cm×1 cm (3 mL) quartz cuvettes having 2 clear sides and 2 sides etched. Lids were placed on the cuvettes and sealed with a wrap of Parafilm® around the joint. The cuvettes were placed in a photolysis chamber, upright on a flat surface beneath and centered between two horizontal 24 inch fluorescent lamps, (GE, black light F20T12, 20 watt for ultraviolet, or Philips F20T12/CW, 20 watt for visible) placed 6 cm apart. The cuvettes were positioned such that their two clear sides were facing the two lamps.\nCuvettes were spaced ˜2 cm from each other, and no closer than 15 cm from the ends of the lamps. This positioning allowed reproducible light exposure to all cuvettes.\nas §1, §2\nThe absorbance readings at 400 nm due to light exposure were plotted against time of exposure and the resulting correlation used to determine the UV and VIS light exposure. A change in absorbance reading of 0.45 was assumed equivalent to 200 watt hours/square meter for the UV light and a change of 0.51 was assumed equivalent to 1.2 million lux hours for the VIS light. The UV lamps provided 6.62 watts/square meter and the VIS lamps provided 7180 lux.\nAqueous solutions were prepared containing 50 mM contrast agent by diluting commercially available solutions with water. Tromethamine HCl buffer (TRIS), was added to solutions as necessary to increase the TRIS content to that of the commercial product before dilution.\nSCD was added to the solutions at various mole ratios and the pH of the solutions adjusted to 7.4 with 0.1N hydrochloric acid or 0.1N sodium hydroxide. The solutions were irradiated with UV light for 18 hours (119 watt hours/m^2) then processed, analyzed and reported as in Example 2. The SCDs evaluated were sulfobutyl ether beta-cyclodextrin with an average degree of substitution of 7 (SBE-704CD), and two 2-hydroxypropyl beta-cyclodextrin derivatives having 6.3 (HP-6.3n/CD) and 4.3 (HP-4.3-βCD) average degrees of substitution.\nAqueous solutions were prepared containing 50 mM contrast agent by diluting commercially available solutions with distilled water. Tromethamine HCl buffer (TRIS), was added to some solutions to increase the buffer content.\nThe solutions were divided and SBE-7-CD added to one aliquot at a contrast agent:SCD mole ratio of 1:1. The pH of the solutions was adjusted to 5, 6, 7, 7.4 or 8 with 0.1N hydrochloric acid or sodium hydroxide. […]"}}, "note": "Where two headings read alike, the source gives them in different places.", "data": [{"compound": "COCC(=O)Nc1c(I)c(C(=O)NCC(O)CO)c(I)c(C(=O)N(C)CC(O)CO)c1I", "note": "(centres unmarked) [Iopromide, iopromide]", "values": [{"measurement": "Iodide Formed, Autoclaved", "setting": "[1]; Iopromide 150 mg I/mL, pH 7.4, agent:SBE7CD 1:0.05", "value": 0.00289, "unit": "wt %"}, {"measurement": "Iodide Formed, Autoclaved", "setting": "[1]; Iopromide 150 mg I/mL, pH 7.4, no SCD (1:0)", "value": 0.00383, "unit": "wt %"}, {"measurement": "Iodide Formed, Autoclaved", "setting": "[1]; Iopromide 240 mg I/mL, pH 7.4, agent:SBE7CD 1:0.05", "value": 0.00217, "unit": "wt %"}, {"measurement": "Iodide Formed, Autoclaved", "setting": "[1]; Iopromide 240 mg I/mL, pH 7.4, no SCD (1:0)", "value": 0.00204, "unit": "wt %"}, {"measurement": "Iodide Formed, Autoclaved", "setting": "[1]; Iopromide 300 mg I/mL, pH 7.4, agent:SBE7CD 1:0.05", "value": 0.00118, "unit": "wt %"}, {"measurement": "Iodide Formed, Autoclaved", "setting": "[1]; Iopromide 300 mg I/mL, pH 7.4, no SCD (1:0)", "value": 0.00145, "unit": "wt %"}, {"measurement": "Iodide Formed, Autoclaved", "setting": "[1]; Iopromide 370 mg I/mL, pH 7.4, agent:SBE7CD 1:0.05", "value": 0.00072, "unit": "wt %"}, {"measurement": "Iodide Formed, Autoclaved", "setting": "[1]; Iopromide 370 mg I/mL, pH 7.4, no SCD (1:0)", "value": 0.00111, "unit": "wt %"}]}, {"compound": "O=C(NCC(O)CO)c1c(I)c(C(=O)NCC(O)CO)c(I)c(N(CCO)C(=O)CO)c1I", "note": "(centres unmarked) [Ioversol, ioversol]", "values": [{"measurement": "percent change in iodide degradants formed in the presence of the SCD", "setting": "[1]; 20 min, 50 mM, pH 7.4", "value": "(−30.8%)"}, {"measurement": "Iodide Formed, Autoclaved", "setting": "[1]; Ioversol 160 mg I/mL, pH 7.1, agent:SBE7CD 1:0.05", "value": 0.0241, "unit": "wt %"}, {"measurement": "Iodide Formed, Autoclaved", "setting": "[1]; Ioversol 160 mg I/mL, pH 7.1, no SCD (1:0)", "value": 0.0244, "unit": "wt %"}, {"measurement": "Iodide Formed, Autoclaved", "setting": "[1]; Ioversol 240 mg I/mL, pH 7.1, agent:SBE7CD 1:0.05", "value": 0.0162, "unit": "wt %"}, {"measurement": "Iodide Formed, Autoclaved", "setting": "[1]; Ioversol 240 mg I/mL, pH 7.1, no SCD (1:0)", "value": 0.0160, "unit": "wt %"}, {"measurement": "Iodide Formed, Autoclaved", "setting": "[1]; Ioversol 300 mg I/mL, pH 7.1, agent:SBE7CD 1:0.05", "value": 0.0129, "unit": "wt %"}, {"measurement": "Iodide Formed, Autoclaved", "setting": "[1]; Ioversol 300 mg I/mL, pH 7.1, no SCD (1:0)", "value": 0.0135, "unit": "wt %"}, {"measurement": "Iodide Formed, Autoclaved", "setting": "[1]; Ioversol 320 mg I/mL, pH 7.1, agent:SBE7CD 1:0.05", "value": 0.0127, "unit": "wt %"}, {"measurement": "Iodide Formed, Autoclaved", "setting": "[1]; Ioversol 320 mg I/mL, pH 7.1, no SCD (1:0)", "value": 0.0130, "unit": "wt %"}, {"measurement": "Iodide Formed, Autoclaved", "setting": "[1]; Ioversol 350 mg I/mL, pH 7.1, agent:SBE7CD 1:0.05", "value": 0.0120, "unit": "wt %"}, {"measurement": "Iodide Formed, Autoclaved", "setting": "[1]; Ioversol 350 mg I/mL, pH 7.1, no SCD (1:0)", "value": 0.0124, "unit": "wt %"}, {"measurement": "% Change in iodide degradants formed in the presence of the SCD", "setting": "[2]; pH 5", "value": "−43.6", "unit": "%"}, {"measurement": "% Change in iodide degradants formed in the presence of the SCD", "setting": "[2]; pH 7.4", "value": "−58.5", "unit": "%"}, {"measurement": "% Change in iodide degradants formed in the presence of the SCD", "setting": "[2]; pH 8", "value": "−47", "unit": "%"}]}, {"compound": "CC(=O)N(CC(O)CN(C(C)=O)c1c(I)c(C(=O)NCC(O)CO)c(I)c(C(=O)NCC(O)CO)c1I)c1c(I)c(C(=O)NCC(O)CO)c(I)c(C(=O)NCC(O)CO)c1I", "note": "(centres unmarked) [Iodixanol, iodixanol]", "values": [{"measurement": "Iodide Formed, Autoclaved", "setting": "[1]; Iodixanol 270 mg I/mL, pH 7.4, agent:SBE7CD 1:0.05", "value": 0.0161, "unit": "wt %"}, {"measurement": "Iodide Formed, Autoclaved", "setting": "[1]; Iodixanol 270 mg I/mL, pH 7.4, no SCD (1:0)", "value": 0.0167, "unit": "wt %"}, {"measurement": "Iodide Formed, Autoclaved", "setting": "[1]; Iodixanol 320 mg I/mL, pH 7.4, agent:SBE7CD 1:0.05", "value": 0.0135, "unit": "wt %"}, {"measurement": "Iodide Formed, Autoclaved", "setting": "[1]; Iodixanol 320 mg I/mL, pH 7.4, no SCD (1:0)", "value": 0.0132, "unit": "wt %"}]}]}
